2 molecules from patent publication US5191079A, “Quinolinecarboxylic acid derivatives” (priority 1990, dated 1993) can be followed below.

Data set [1] can be described thus: Acute toxicity, Experiment 5. The class given is in vivo. The following applies: oral, 2000 mg/kg, one week. The method, then:
The compound (A) or (B) of the present invention was suspended in distilled water to prepare a suspension in concentration of 200 mg/ml and the compound (C) was suspended in distilled water to prepare a suspension in concentration of 100 mg/ml. The suspension was orally administered to ddY male mice (5 weeks age, weighing 19 to 24 g, 5 mice in each group), which had been fasted for 18 hours, at a rate of 2000 mg/kg body weight of the test compound.

In data set [2] the test system is Staphylococcus aureus IID 803. The data set can be described thus: Effect on treatment of general infectious disease (systemic infection in mice), Experiment 3. The class given is in vivo, Staphylococcus aureus; ddY male mice. As to the method:
(§1) Staphylococcus aureus IID 803
(§2) The test microorganism was subjected to standing culture in Brain heart infusion broth (manufactured by DIFCO) at 37° C. for 16 to 18 hours. The culture was then diluted with PBS (Dulbecco's phosphate buffered saline) to adjust the concentration of bacteria to 4×10^7 -8×10^7 CFU/ml. The mixture was mixed with an equivalent amount of 10% (w/v) Mucin (BACTO MUCIN BACTERIOLOGICAL, manufactured by Difco Co.) to prepare a bacterial suspension. The thus prepared bacterial suspension (0.5 ml each) was intraperitoneally inoculated to ddY male mice (5 weeks age, weighing 24-27 g, 5 mice in each group), to infect the animals, by which systemic infectious model was prepared.
The mice were daily observed for one week, and from the survival number of mice after one week, the 50% effective dose (ED50) was calculated by Weil method. This test was repeated several times and the average of ED50 was calculated.

A further data set relates to bone marrow. The data set can be described thus: Micronucleus test, Experiment 8. The class given is in vivo, ICR male mice. The following applies: oral 300, 1000, 3000 mg/kg, mouse bone marrow, 24 or 48 hours. As to the method: The compound (B) or (E) of the present invention was suspended in 1% aqueous gum arabic. The suspension was orally administered to ICR male mice (7-8 weeks age, weighing 30 to 39 g, 5 mice in each group) at a rate of 3000, 1000 or 300 mg/kg body weight of the test compound (B) or (E). After 24 hours or 48 hours, these mice were killed and the bone marrow was collected and observed the presence of micronuclei.

In data set [3] the test system is clinically isolated Enterococcus faecium. The data set can be described thus: In vitro antibacterial activity against clinical isolates, Experiment 2. The class given is cell-based. The following applies: for MIC: 25 clinical strains E. faecium. In short, it runs like this: (§3)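 Each compound was brought to a 1000 μg/ml stock with sterilized distilled water, and MICs were measured on sensitivity test agar.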

Data set [4] relates to clinically isolated Staphylococcus aureus. The data set is described as above. The class given is cell-based. The following applies: for MIC / MIC50: 25 clinical strains S. aureus incl. 16 methicillin resistant; for MIC50: 50% of strains, read-out: MIC50. A digest of the protocol:
as §3

Data set [5] relates to clinically isolated Enterococcus faecalis. Described as above. The class given is cell-based. The following applies: for MIC50: 50% of strains, read-out: MIC50. In short, it runs like this:
as §3

Data set [6] concerns Staphylococcus epidermidis IAM 1296. Briefly: MIC, Experiment 1. The class given is cell-based. The following applies: IAM1296, S. epidermidis IAM 1296, Gram +, read-out: Min. inhib. concentr. (MIC). The method, then:
The compounds of the present invention ([…] and Q) were each dissolved in dimethylsulfoxide to prepare a solution of 5000 μg/ml in concentration. The compounds of the present invention (I, J and K) and the known compound (Y) were each dissolved in sterilized distilled water to prepare a solution of 5000 μg/ml in concentration. […] The test was carried out by a method as appointed by Japan Society of Chemotherapy [cf. Chemotherapy, 29, 76-79 (1981), TOKYO]. As to Streptococcus pneumoniae and Streptococcus pyogenes, Brain heart infusion broth (manufactured by DIFCO) was used as the medium for the preculture thereof, and a heart infusion agar medium containing 5% defibrinated horse blood (manufactured by Nissui Seiyaku K. K., Japan) was used as the medium for the measurement of minimum inhibitory concentration (MIC). As to other microorganisms, a sensitivity test broth (manufactured by Nissui Seiyaku K. K.) was used as the medium for the preculture thereof, and a sensitivity test agar medium (manufactured by Nissui Seiyaku K. K.) was used as the medium for the measurement of MIC.

The nature of data set [7]: Acute toxicity, Experiment 6. The following applies: oral, 1000 and 2000 mg/kg, one week. The class given is in vivo, F344/DuCrj male and female rats. The method, then: 9,1-(Methylimino)methano-7-fluoro-8-(2-methoxymethylmorpholino)-5-oxo-5H-thiazolo[3,2-a]quinoline-4-carboxylic acid (compound of Example 20) [the compound (E) of the present invention] was suspended in 1% aqueous gum arabic to prepare a suspension in concentration of 100 mg/ml. The suspension was orally administered to F344/DuCrj male and female rats (5 weeks age, weighing 110 to 115 g in male, 91 to 95 g in female, 3 rats in each group), which had been fasted for 5 hours, at a rate of 1000 and 2000 mg/kg body weight of the test compound (E).

Data set [8] deals with Staphylococcus aureus IID 803. The data set can be described thus: Effect on treatment of general infectious disease (systemic infection in mice), Experiment 4. The class given is in vivo, Staphylococcus aureus; ddY male mice. As to the method: as §1
as §2, with “to 3×10^7” for “to 4×10^7 -8×10^7”, “weighing 22-29” for “weighing 24-27”, “g, 10” for “g, 5”, “prepared. One hour after the infection, a suspension of the test compound in 1% (w/v) aqueous gum arabic was orally adiministered to mice.” for “prepared.”
The mice were daily observed for one week, and from the survival number of mice after one week, the 50% effective dose (ED50) was calculated by Weil method.

The mark [9] stands for this setting: 25 clinical strains E. faecalis.

By ED50 is commonly meant the dose at which the effect has come halfway, by size or by number of responders. Usually MIC50 stands for the lowest concentration that inhibits either 50% of growth or 50% of the strains tested, depending on the study. Usually MIC90 stands for the lowest concentration that inhibits either 90% of growth or 90% of the strains tested, depending on the study. By MIC is commonly meant the lowest concentration that inhibits growth of the organism.

Converted amounts (≈) assume the structure as drawn. Where two headings read alike, the source gives them in different places.

On to `CN1Cc2csc3c(C(=O)O)c(=O)c4cc(F)c(N5CCOC(CO)C5)c1c4n23` (stereo not shown) [Compound (B), 9,1-(Methylimino)methano-7-fluoro-8-(2-hydroxymethylmorpholino)-5-oxo-5H-thiazolo[3,2-a]quinoline-4-carboxylic acid], for which, in [1], the death of mice entry was “no death of mice was observed”. Besides, the “protective effects against infection” value in data set [2] (Experiment 3, in words) is listed as “excellent protective effects against infection”. For the same molecule, the ED50 in [2] (Staphylococcus aureus, IID803, 168 h, oral, 1 h after i.p. infection, mice, survival after one week, average of several tests, read-out: 50% effective dose (ED50)) is 5.1 mg/kg. The micronucleus inducing activity result with bone marrow is given as “no nucleus inducing activity”. Also, the MIC50 in data set [3] was determined as 1.56 µg/mL (≈ 3.72 µM); in data set [4], 0.013 µg/mL (≈ 0.031 µM); in data set [5] (setting [9]), 0.2 µg/mL (≈ 0.477 µM). The MIC90 in [3] was determined as 6.25 µg/mL (≈ 14.9 µM); in data set [4] it was 0.78 µg/mL (≈ 1.86 µM); in data set [5] (25 clinical strains E. faecalis, 90% of strains, read-out: MIC90), 3.13 µg/mL (≈ 7.46 µM). In addition, the MIC is 0.1 to 25 µg/mL (≈ 0.238 to 59.6 µM) in [3], 0.006 to 0.78 µg/mL (≈ 0.0143 to 1.86 µM) in data set [4], 0.05 to 3.13 µg/mL (≈ 0.119 to 7.46 µM) in data set [5] (setting [9]) and 0.05 µg/mL (≈ 0.119 µM) in [6].
In the case of `COCC1CN(c2c(F)cc3c(=O)c(C(=O)O)c4scc5n4c3c2N(C)C5)CCO1` (stereo not shown) [Compound (E), 9,1-(Methylimino)methano-7-fluoro-8-(2-methoxymethylmorpholino)-5-oxo-5H-thiazolo[3,2-a]quinoline-4-carboxylic acid], the death of rats result in data set [7] is given as “no death of rats was observed”. Further, in the data set with bone marrow, the micronucleus inducing activity result is “no nucleus inducing activity”. Besides, the MIC50 in [3] came to 3.13 µg/mL (≈ 7.22 µM); in data set [4], 0.013 µg/mL (≈ 0.03 µM); in data set [5] (setting [9]), 0.2 µg/mL (≈ 0.461 µM). The MIC90 in data set [3] was 6.25 µg/mL (≈ 14.4 µM); in data set [4], 0.78 µg/mL (≈ 1.8 µM); in [5] it was 6.25 µg/mL (≈ 14.4 µM). Also, the MIC in [3] was 0.1 to 12.5 µg/mL (≈ 0.231 to 28.8 µM); in [4], 0.006 to 0.78 µg/mL (≈ 0.0138 to 1.8 µM); in data set [5] (setting [9]), 0.1 to 6.25 µg/mL (≈ 0.231 to 14.4 µM); in data set [6], 0.05 µg/mL (≈ 0.115 µM). The “protective effects against infection” value in data set [8] (Experiment 4, in words) was “excellent protective effects against infection”. Further, in data set [8] (Staphylococcus aureus, IID803, 168 h, oral, 1 h after i.p. infection, mice, survival after one week, 3×10^7 CFU/ml, read-out: 50% effective dose (ED50)), the ED50 was 1.7 mg/kg.
